Source: patent US20260242440A1, “NOVEL MEANS TO MODULATE NMDA RECEPTOR-MEDIATED TOXICITY” (FUNDAMENTAL PHARMA GMBH, priority 2018, published 2026)
“Also recorded” adds a separate entry of the source.

How the values were obtained:
[1] = tested on: middle cerebral artery occlusion (MCAO) mouse stroke model; experiment: middle cerebral artery occlusion (MCAO) mouse stroke model, infarct volume; format: in vivo; details: rAAV delivered stereotactically to mouse cortex 3 weeks before MCAO; quantified 7 days post-injury; vs PBS control
From the text: Given the robust protective effect of SEQ ID NO:5 in cultured neurons, the inventors next analysed its neuroprotective potential in vivo using the middle cerebral artery occlusion (MCAO) mouse stroke model.
Stereotactic intracerebral injection to the cortex of mice: C57BL/6N male mice (8 weeks±5 days old) weighing 25±1 g were randomly grouped and anaesthetized with a mixture of Sedin©, Midazolam and Fentanyl®-Janssen and placed on a rodent stereotactic frame on a heat pad temperature controlled by a ATC1000 DC rectal thermometer (World Precision Instruments, Berlin). rAAV-SEQ ID NO:5) was infused into the left cortex (coordinates relative to Bregma: first site: AP 0.2 mm; ML 2.0; DV −2.0; second site: AP 0.2; ML 2.0; DV −1.8; third site: AP 0.2; ML 3.0; DV −4.0; forth site: AP 0.2; ML 3.0; DV −3.5.) using a Ultra Micro Pump III (World Precision Instruments, Berlin) to drive a 10 μl Nanofil syringe (World Precision Instruments, Berlin). […]
MCAO: Middle cerebral artery occlusion (MCAO) induced a permanent distal occlusion of the middle cerebral artery (MCA). […] The silver stained sections were scanned at 1200 dpi and infarct area was measured by using ImageJ software (NIH Image). Surgery was performed and ischemic damage was measured by an investigator who had no knowledge of the treatment group, rAAV or recombinant protein was applied by stereotactic injection or intranasal delivery.

[2] = biological target: T1, NMDA receptor/TRPM4 complex (Mus musculus, UniProt Q7TN37); experiment: co-immunoprecipitation of NMDA receptor/TRPM4 complex from mouse cortical lysates after i.p. injection; format: in vivo
T1 construct: cortical lysates were obtained from control mice and from mice 2 h, 6 h and 24 h following intraperitoneal injection; from tissue; host or cells: mouse cortex (lysate after i.p. injection of compound P4)
Protocol: In a further experiment it was assessed whether compound P4 has any impact on NMDA receptor/TRPM4 complex formation. For this purpose, co-immunoprecipitation experiments using brain lysates from the mouse cortex where carried out. Briefly, cortical lysates were obtained from control mice and from mice 2 h, 6 h and 24 h following intraperitoneal injection of compound P4 (40 mg/kg) in immunoprecipitation buffer (10 mM Tris, pH 8.0, 150 mM NaCl, 1 mM EDTA, 1% NP-40, 10% glycerol with Protease Inhibitor Cocktail, Roche) for 60 min. The lysate was then centrifuged for 12 min at 1200 g to remove cell debris and nuclei. The mixture of supernatant was incubated with anti-TRPM4 antibodies overnight. Pierce™ Protein A Magnetic Beads were added to the mixture and mixed another 12 h, followed by 3 washes with immunoprecipitation buffer. The precipitates were subsequently boiled in protein loading buffer and separated in 7.5% SDS-PAGE.

HEK293 cells = experiment: Luminescent cytotoxicity assay, HEK293 cells transfected with GRIN1 and GRIN2A or GRIN2B; format: cell-based, human; details: compound added 6 h after transfection; cell death 48 h after transfection
Protocol: HEK293 cells were cultured in Dulbecco's Modified Eagle Medium (DMEM, Gibco™ 41965-039) supplement with 10% Fetal Bovine Serum (FBS, Gibco™, 10270), 1% Sodium Pyruvate (Gibco™, 11360070), 1% MEM NEAA (GibcoT^M, 11140035) and 0.5% Penicillin-Streptomycin (P-S; Sigma, P0781) and Passagel5-25 were used for experiments.
To test the cytotoxicity of compounds according to the present invention, HEK293 cells (70-80% confluent) were transfected 24 hours after plating with both GRIN1 and GRIN2 Å or GRIN2B, respectively (1:[…]) with Lipofectamine 2000 according to manufacturer's instructions. The relative number of dead cells in the population at the indicated time points after transfection was measured with the CytoTox-Glo™ Cytotoxicity assay (Promega, G9290) according to manufacturer's instruction with minor modification. Briefly, 10% of total medium were mixed with 10 μL AAF-amino luciferin to reach a final volume at 200 μL with water, the dead cell relative luminescence units (DRLU) was measured by GloMax (Promega) in a 96 well white bottom polystyrene microplate (Corning Costar®, 3912). After all the measurements, lysis reagents have been added to the cells and 10% of lysate was used for the total cell relative luminescence units (TRLU) measurement. Cell death was calculated by the following equations: […]
For drug testing, P4, P8, P9, P13 and P15 were added to the medium at indicated concentration 6 h after transfection. DRLU, TRLU and cell death were measured and calculated 48 h after transfection.

T1 sequence (Q7TN37 whole entry, one chain of several): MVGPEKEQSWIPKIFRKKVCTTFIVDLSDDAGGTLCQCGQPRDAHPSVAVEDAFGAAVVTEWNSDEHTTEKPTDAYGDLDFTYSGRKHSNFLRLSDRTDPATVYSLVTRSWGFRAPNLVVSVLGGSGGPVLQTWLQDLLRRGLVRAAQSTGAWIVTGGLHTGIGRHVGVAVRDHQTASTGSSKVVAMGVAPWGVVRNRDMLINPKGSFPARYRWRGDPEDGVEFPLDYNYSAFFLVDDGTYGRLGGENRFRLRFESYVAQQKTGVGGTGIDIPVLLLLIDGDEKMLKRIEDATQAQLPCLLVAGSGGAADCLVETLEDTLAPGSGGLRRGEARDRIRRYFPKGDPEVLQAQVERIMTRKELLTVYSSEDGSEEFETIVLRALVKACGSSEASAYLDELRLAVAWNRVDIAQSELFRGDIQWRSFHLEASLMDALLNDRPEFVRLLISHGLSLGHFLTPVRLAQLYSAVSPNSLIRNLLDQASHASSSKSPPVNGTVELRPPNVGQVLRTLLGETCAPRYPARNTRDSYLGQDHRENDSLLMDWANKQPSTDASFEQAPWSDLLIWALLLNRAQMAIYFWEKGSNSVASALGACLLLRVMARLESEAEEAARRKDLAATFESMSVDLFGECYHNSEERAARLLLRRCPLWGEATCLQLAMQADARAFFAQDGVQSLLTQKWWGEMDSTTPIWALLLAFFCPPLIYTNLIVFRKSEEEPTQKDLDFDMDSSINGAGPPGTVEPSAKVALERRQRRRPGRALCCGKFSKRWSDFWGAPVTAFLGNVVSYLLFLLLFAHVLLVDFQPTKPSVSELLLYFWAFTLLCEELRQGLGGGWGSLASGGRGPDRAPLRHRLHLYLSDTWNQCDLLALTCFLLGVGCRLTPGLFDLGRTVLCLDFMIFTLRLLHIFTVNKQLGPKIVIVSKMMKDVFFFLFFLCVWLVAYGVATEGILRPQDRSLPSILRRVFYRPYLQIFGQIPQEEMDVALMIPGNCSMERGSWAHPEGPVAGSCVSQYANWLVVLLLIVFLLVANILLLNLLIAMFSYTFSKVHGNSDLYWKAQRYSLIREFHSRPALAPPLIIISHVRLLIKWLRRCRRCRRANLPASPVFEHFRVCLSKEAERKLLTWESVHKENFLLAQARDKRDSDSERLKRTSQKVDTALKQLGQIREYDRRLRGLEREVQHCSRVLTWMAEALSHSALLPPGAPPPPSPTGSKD

| Compound | infarct volume [1] | reduction in NMDA receptor/TRPM4 complex formation ([2]; 2 h after single i.p. injection of 40 mg/kg) | reduction in NMDA receptor/TRPM4 complex formation ([2]; 6 h after single i.p. injection of 40 mg/kg) | NMDA receptor/TRPM4 complex formation ([2]; 24 h after i.p. injection of 40 mg/kg) | NMDA receptor induced cell death (HEK293 cells) |
| --- | --- | --- | --- | --- | --- |
| SEQ ID NO:5: polypeptide, amino acid residues 633-689 of mouse TRPM4 (NSEERAARLLLRRCPLWGEATCLQLAMQADARAFFAQDGVQSLLTQKWWGEMDSTTP; listed as Mus musculus) | significantly smaller; also recorded: effectively reduced the infarct volumes |  |  |  |  |
| CCN(CCN)Cc1cccc(Br)c1 [P4] |  | 51% | 61% | had reformed | reduced the level of NMDA receptor induced cell death |
